Experiments:
phospho-β-catenin = test: Western blot of phospho-β-catenin in MDA MB 231 cells; type: cell-based, human; conditions: MDA MB 231, 1 μM, 16 hrs; vehicle = 1.00
Protocol: Cells (1 × 10^5) were seeded in 6-well plates. After 24 h, cells were treated for indicated times with DMSO (vehicle) or FHP01 or XAV939 (Merck). After treatments, cells were washed with cold PBS and total protein extracts obtained by adding 80 µL of “RIPA Lysis buffer” (50 mM Tris-HCl pH 8.0, 150 mM NaCl, 0.5% Sodium deoxycholate, 0.1% SDS, 1% NP-40, 2 mM Orthovanadate, 2mM Sodium fluoride, 1mM Dithiothreitol and 1× protease inhibitors). After mechanicals detachment with cell scrapers, total lysates were collected in tubes, vortexed, and incubated for 15 min on ice. Tumors from mice were collected and disrupted by bead homogenization in Lysing Matrix D tubes using a FastPrep-24 5G homogenizer (MP Biomedicals, Solon, OH, USA) filled with “RIPA Lysis buffer” w:v. Next, samples were centrifuged for 10 min at 16,000× g, and supernatants were collected, representing total cell lysates.
Densitometric analysis of western blots was performed with NIH Image J (National Institutes of Health).

[1] = system: WNT signaling (TCF/LEF transcriptional activity); test: TCF/LEF luciferase reporter assay (WNT1/WNT3A) in MDA MB 231 cells; type: cell-based, human; conditions: MDA MB 231, WNT1/WNT3A, 1 μM, 16 hrs
Protocol: MDA MB 231 cells were seeded at 3 × 10^4 cells/well density in 12-well plates, in triplicate, and transfected with 250 ng of the M50 Super 8× TOPFlash reporter vector (Addgene Plasmid #12456) and 1 μg of expression vectors inducing the WNT pathway (Wnt1-V5, Addgene plasmid #43807, and Wnt3A-V5, Addgene plasmid #43810). Eight hours after transfection, cells were treated with FHP01, XAV939 (Merck, Kenilworth, NJ, USA) or DMSO for indicated times prior to lysis in Passive Lysis Buffer (Promega, Madison, WI, USA). Luciferase activity in cellular lysates was assessed on a Glomax 20/20 luminometer (Promega) using the Luciferase Assay System (Promega). Results were normalized for GFP expression, upon transfection with GFP coding vector (1 μg). Representative results from 3 independent experiments are shown (n = 3). Error bars represent the Standard Error of the Mean. All samples were read at least in triplicate.

`Oc1nc(-c2ccc(C(F)(F)F)cc2)nc2c1CSCC2` [XAV939, reference compound] was tested, and the “Phospho-β-catenin : ERK2” value (phospho-β-catenin) was 2.64 and the TCF/LEF-dependent transcription [1] was “efficient attenuation”.
